Laboratory results from ChEMBL document CHEMBL6114992, “Design, synthesis, biological evaluation, and mechanism of action of new pyrazines as anticancer agents in vitro and in vivo” (Bioorg Med Chem, 2025).
The source made the active and inactive calls. The calls are words filed in the database; no cut-off is given here.

Tests used:
[1] = molecular target: Signal transducer and activator of transcription 3 (Homo sapiens) (UniProt P40763); test: Inhibition of STAT3 phosphorylation in human U-937 cells at 1 to 5 uM incubated for 48 hrs by Western blot analysis; type: cell-based; conditions: dose 1-5 µM
[2] = test system: U-937; test: Downregulation of c-Myc expression in human U-937 cells incubated for 48 hrs by Western blot analysis; type: functional, cell-based; conditions: dose 1-5 µM
[3] = test system: U-937; test: Induction of apoptosis in human U-937 cells assessed as late apoptotic cells at 0.5 uM incubated for 48 hrs by Annexin V-FITC/PI staining based flow cytometry (reference value: 1.96 %); type: functional
[4] = test system: U-937; test: Downregulation of Bcl-2 expression in human U-937 cells incubated for 48 hrs by Western blot analysis; type: functional, cell-based
[5] = test system: U-937; test: Induction of apoptosis in human U-937 cells assessed as necrotic cells at 0.5 uM incubated for 48 hrs by Annexin V-FITC/PI staining based flow cytometry (reference value: 2.03 %); type: functional
[6] = test system: U-937; test: Induction of apoptosis in human U-937 cells assessed as viable cells at 2.5 uM incubated for 48 hrs by Annexin V-FITC/PI staining based flow cytometry (reference value: 93.30 %); type: functional; conditions: read-out: Activity
[7] = test system: SK-OV-3; test: Antiproliferative activity against human SK-OV-3 cells assessed as inhibition of cell growth incubated for 72 hrs by MTT assay; type: functional, cell-based; conditions: SK-OV-3, 72 h
[8] = test system: U-937; test: Downregulation of YAP1 expression in human U-937 cells incubated for 48 hrs by Western blot analysis; type: functional, cell-based; conditions: dose 1-5 µM
[9] = test system: U-937; test: Downregulation of Bcl-XL expression in human U-937 cells incubated for 48 hrs by Western blot analysis; type: functional, cell-based; conditions: dose 1-5 µM
[10] = test system: U-937; test: Induction of apoptosis in human U-937 cells assessed as viable cells at 1 uM incubated for 48 hrs by Annexin V-FITC/PI staining based flow cytometry (reference value: 93.30 %); type: functional; conditions: read-out: Activity
[11] = test system: U-937; test: Induction of apoptosis in human U-937 cells assessed as early apoptotic cells at 1 uM incubated for 48 hrs by Annexin V-FITC/PI staining based flow cytometry (reference value: 2.72 %); type: functional
[12] = test system: U-937; test: Induction of apoptosis in human U-937 cells assessed as viable cells at 0.5 uM incubated for 48 hrs by Annexin V-FITC/PI staining based flow cytometry (reference value: 93.30 %); type: functional; conditions: read-out: Activity
[13] = test system: U-937; test: Induction of apoptosis in human U-937 cells assessed as necrotic cells at 1 uM incubated for 48 hrs by Annexin V-FITC/PI staining based flow cytometry (reference value: 2.03 %); type: functional
[14] = test system: U-937; test: Induction of apoptosis in human U-937 cells assessed as necrotic cells at 2.5 uM incubated for 48 hrs by Annexin V-FITC/PI staining based flow cytometry (reference value: 2.03 %); type: functional
[15] = test system: U-937; test: Induction of apoptosis in human U-937 cells assessed as change in mitochondrial membrane potential at 1 uM incubated for 48 hrs by JC-1 staining based flow cytometry (reference value: 2.20 %); type: functional
[16] = test system: U-937; test: Induction of apoptosis in human U-937 cells assessed as late apoptotic cells at 1 uM incubated for 48 hrs by Annexin V-FITC/PI staining based flow cytometry (reference value: 1.96 %); type: functional
[17] = test system: U-937; test: Induction of apoptosis in human U-937 cells assessed as change in mitochondrial membrane potential at 5 uM incubated for 48 hrs by JC-1 staining based flow cytometry (reference value: 2.20 %); type: functional
[18] = Antiproliferative activity against human SK-OV-3/Taxol cells assessed as inhibition of cell growth incubated for 72 hrs by MTT assay; type: functional, cell-based; conditions: SK-OV-3, 72 h
[19] = test system: U-937; test: Induction of apoptosis in human U-937 cells assessed as change in mitochondrial membrane potential at 2.5 uM incubated for 48 hrs by JC-1 staining based flow cytometry (reference value: 2.20 %); type: functional
[20] = test system: U-937; test: Induction of apoptosis in human U-937 cells assessed as early apoptotic cells at 2.5 uM incubated for 48 hrs by Annexin V-FITC/PI staining based flow cytometry (reference value: 2.72 %); type: functional
[21] = test system: KG-1; test: Antiproliferative activity against human KG-1 cells assessed as inhibition of cell growth incubated for 72 hrs by MTT assay; type: functional, cell-based; conditions: KG-1, 72 h
[22] = test system: THP-1; test: Antiproliferative activity against human THP-1 cells assessed as inhibition of cell growth incubated for 72 hrs by MTT assay; type: functional, cell-based; conditions: THP-1, 72 h
[23] = test system: U-937; test: Induction of apoptosis in human U-937 cells assessed as late apoptotic cells at 2.5 uM incubated for 48 hrs by Annexin V-FITC/PI staining based flow cytometry (reference value: 1.96 %); type: functional
[24] = test system: U-937; test: Upregulation of p21 expression in human U-937 cells incubated for 48 hrs by Western blot analysis; type: functional, cell-based
[25] = test system: U-937; test: Downregulation of XIAP expression in human U-937 cells incubated for 48 hrs by Western blot analysis; type: functional, cell-based
[26] = test system: U-937; test: Antiproliferative activity against human U-937 cells assessed as inhibition of cell growth incubated for 72 hrs by MTT assay; type: functional, cell-based; conditions: U-937, 72 h
[27] = test system: U-937; test: Induction of apoptosis in human U-937 cells assessed as early apoptotic cells at 0.5 uM incubated for 48 hrs by Annexin V-FITC/PI staining based flow cytometry (reference value: 2.72 %); type: functional

Chain of Signal transducer and activator of transcription 3 (Homo sapiens) (P40763 whole entry): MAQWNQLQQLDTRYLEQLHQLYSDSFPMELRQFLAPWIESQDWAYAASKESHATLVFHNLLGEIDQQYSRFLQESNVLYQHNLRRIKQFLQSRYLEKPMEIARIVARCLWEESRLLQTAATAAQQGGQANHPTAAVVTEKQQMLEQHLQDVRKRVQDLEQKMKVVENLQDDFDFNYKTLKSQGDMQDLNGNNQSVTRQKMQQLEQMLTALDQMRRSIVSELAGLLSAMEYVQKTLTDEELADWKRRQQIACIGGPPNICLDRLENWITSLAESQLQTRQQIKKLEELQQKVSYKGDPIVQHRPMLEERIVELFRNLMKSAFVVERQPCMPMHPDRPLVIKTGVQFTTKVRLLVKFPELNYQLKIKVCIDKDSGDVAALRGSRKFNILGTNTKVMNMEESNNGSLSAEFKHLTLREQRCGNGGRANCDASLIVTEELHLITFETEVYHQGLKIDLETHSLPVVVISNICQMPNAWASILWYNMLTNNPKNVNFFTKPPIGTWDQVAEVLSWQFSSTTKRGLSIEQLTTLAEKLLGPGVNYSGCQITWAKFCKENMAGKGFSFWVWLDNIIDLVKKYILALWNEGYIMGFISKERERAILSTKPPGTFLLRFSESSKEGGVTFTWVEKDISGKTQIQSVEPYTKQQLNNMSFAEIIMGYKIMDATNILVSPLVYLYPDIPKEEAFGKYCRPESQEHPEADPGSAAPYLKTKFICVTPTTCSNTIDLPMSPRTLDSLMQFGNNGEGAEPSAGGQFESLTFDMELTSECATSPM

- inhibition [1]: Active
- IC50 [7]: 4.71 µM
- IC50 [22]: 0.64 µM
- IC50 [26]: 0.18 µM
SMILES: CCc1nccnc1C(=O)/C=C/c1ccc(C#N)cc1
- Activity [2]: Dose-dependent-effect
- Activity [3]: 6.11%
- Activity [4]: Dose-dependent-effect
- Activity [5]: 2.84%
- viability at 2.5 µM [6]: 74.2%
- Activity [8]: Dose-dependent-effect
- Activity [9]: Dose-dependent-effect
- viability at 1 µM [10]: 80.3%
- Activity [11]: 10.41%
- viability at 0.5 µM [12]: 82.9%
- Activity [13]: 2.6%
- Activity [14]: 3.82%
- Activity [15]: 3.69%
- Activity [16]: 6.74%
- Activity [17]: 14.12%
- IC50 [18]: 5.39 µM
- Activity [19]: 6.16%
- Activity [20]: 14.57%
- IC50 [21]: 3.98 µM
- Activity [23]: 7.46%
- Activity [24]: Dose-dependent-effect
- Activity [25]: Dose-dependent-effect
- Activity [27]: 8.17%
